According to patent US20060079453A1, “Hla binding peptides and their uses” (priority 2002, published 2006):
Read-outs that look alike come from different tables or passages of the source. No end group written: not given here.

What was measured:
HLA-A*2902 = HLA-A*2902 (Homo sapiens, UniProt P04439, A270S/D101N/D185E/E176V/E277Q/E87Q/F33T/G231S/H175R/I121M/I218V/I322F/K168Q/L300P/L318F/M331R/P208A/P217A/Q86L/T323A/T345S/V100A/V358M); experiment: MHC molecular binding / Capture assay, IC50: A*2902
HLA-A*3002 = HLA-A*3002 (Homo sapiens, UniProt P04439, D101N/D140H/D185E/E176R/F33S/G80R/H175R/K168Q/Q94H/R138E/R41S/V100E); experiment: biochemical; assay type: binding
HLA-A*0203 = HLA-A*0203 (Homo sapiens, UniProt P04439, A173T/D140Y/D185E/D98H/E277Q/G131W/G231S/I119V/I121R/I166T/I218V/L180W/L300P/L318F/N151K/N90K/P208A/P217A/Q86G/Q94H/R138H/R169H/T345S); experiment: biochemical; assay type: binding
HLA-A*0206 = HLA-A*0206 (Homo sapiens, UniProt P04439, D140Y/D185E/D98H/E176V/E277Q/F33Y/G131W/G231S/I119V/I121R/I166T/I218V/L300P/L318F/N151K/N90K/P208A/P217A/Q86G/Q94H/R138H/R169H/T345S); experiment: biochemical; assay type: binding
HLA-A*6802 = HLA-A*6802 (Homo sapiens, UniProt P04439, A269V/D140Y/D185E/E176V/E277Q/E87N/F33Y/G231S/I121R/I166T/I218V/L180W/L300P/L318F/N151K/P208A/P217A/Q86R/R138H/R169H/S129P/T345S/V36M); experiment: biochemical; assay type: binding
HLA-A*0202 = HLA-A*0202 (Homo sapiens, UniProt P04439, D140Y/D185E/D98H/E176V/E277Q/G131W/G231S/I119L/I121R/I166T/I218V/L180W/L300P/L318F/N151K/N90K/P208A/P217A/Q67R/Q86G/Q94H/R138H/R169H/T345S); experiment: biochemical; assay type: binding
HLA-DR DRB1*0101 (DR1) = HLA-DR DRB1*0101 (DR1) (Homo sapiens, UniProt P01903+P01911, A100R/D57E/F55L/F60I/F76Y/I96L/L162R/M171V/P40L/Q125E/R42F/V115G/Y59C); experiment: biochemical; assay type: binding; conditions: DRB1 *0101
HLA-DR DRB1*0301 (DR3) = HLA-DR DRB1*0301 (DR3) (Homo sapiens, UniProt P01903+P01911, A100K/A102G/A103R/A169T/F55Y/I96L/K41T/L162R/M171V/P40S/Q125H/Q178H/Q39Y/R42S/S66N/T106N/T262R/W38E/Y61H); experiment: biochemical; assay type: binding
HLA-DR DRB1*0401 (DR4) = HLA-DR DRB1*0401 (DR4) (Homo sapiens, UniProt P01903+P01911, A100K/A169T/F76Y/I96L/K127E/L162R/M171V/N62H/P40V/Q125Y/R42H/S133A/S149N/S66Y/V115G/V209L/W38E); experiment: biochemical; assay type: binding; conditions: DRB1 *0401
HLA-DR DRB1*0405 (DR4) = HLA-DR DRB1*0405 (DR4) (Homo sapiens, UniProt P01903+P01911, A100R/A169T/D86S/F76Y/I96L/K127E/L162R/M171V/N62H/P40V/Q125Y/R42H/S133A/S149N/S66Y/V115G/V209L/W38E); experiment: biochemical; assay type: binding; conditions: DRB1 *0405
HLA-DR DRB1*0701 (DR7) = HLA-DR DRB1*0701 (DR7) (Homo sapiens, UniProt P01903+P01911, A100R/A102G/A103Q/D57E/D86V/E43K/F76Y/K127E/L162R/M171V/P40G/Q125H/Q99D/R33Q/R42Y/R54Q/S133A/S66F/T210M/V115G/Y107V/Y59L/Y89S); experiment: biochemical; assay type: binding; conditions: DRB1 *0701
HLA-DR DRB1*0802 (DR8) = HLA-DR DRB1*0802 (DR8) (Homo sapiens, UniProt P01903+P01911, A100R/A103L/A169T/F76Y/H45Y/I96F/K41T/L162R/M171V/P40S/Q125H/Q178H/Q39Y/Q99D/R218S/R42G/S66Y/V115G/W38E); experiment: biochemical; assay type: binding
HLA-DR DRB1*0901 (DR9) = HLA-DR DRB1*0901 (DR9) (Homo sapiens, UniProt P01903+P01911, A100R/A103E/D57H/D86V/F55Y/F60I/F76Y/I96F/K127E/L162R/M171V/P40D/Q125H/Q99R/R33Q/R42F/S133A/S66N/T210M/V115G/W38K/Y107V/Y59G/Y89S); experiment: biochemical; assay type: binding; conditions: DRB1 *0901
HLA-DR DRB1*1101 (DR11) = HLA-DR DRB1*1101 (DR11) (Homo sapiens, UniProt P01903+P01911, A100R/A169T/A87E/I96F/K41T/L162R/M171V/P40S/Q125H/Q178H/Q39Y/Q99D/R42S/S66Y/T262R/V115G/W38E); experiment: biochemical; assay type: binding; conditions: DRB1 *1101
HLA-DR DRB1*1302 (DR13) = HLA-DR DRB1*1302 (DR13) (Homo sapiens, UniProt P01903+P01911, A100E/A169T/K41T/L162R/M171V/P40S/Q125H/Q178H/Q39Y/Q99D/R42S/S66N/T262R/V115G/W38E/Y61H); experiment: biochemical; assay type: binding; conditions: DRBI *1302
HLA-DR DRB1*1501 (DR15) = HLA-DR DRB1*1501 (DR15) (Homo sapiens, UniProt P01903+P01911); experiment: biochemical; assay type: binding; conditions: DRBI *1501
HLA-DR DRB3*0101 (DR52) = HLA-DR DRB3*0101 (DR52) (Homo sapiens, UniProt P01903+P79483); experiment: biochemical; assay type: binding
HLA-DR DRB4*0101 (DR53) = HLA-DR DRB4*0101 (DR53) (Homo sapiens, UniProt P01903+P13762, G164S); experiment: biochemical; assay type: binding; conditions: DRB4 *0101
HLA-DR DRB5*0101 (DR51) = HLA-DR DRB5*0101 (DR51) (Homo sapiens, UniProt P01903+Q30154); experiment: biochemical; assay type: binding; conditions: DRB5 *0101
[1] = Binding affinity to A*2902 (expressed as an IC50)
[2] = Binding affinity to A*3002 (expressed as an IC50)
[3] = A*0202 binding affinity (expressed as an IC50)
[4] = A*0203 binding affinity (expressed as an IC50)
[5] = A*0206 binding affinity (expressed as an IC50)
[6] = A*6802 binding affinity (expressed as an IC50)

HLA-DR DRB1*0301 (DR3), sequence (P01903 26-254 limits assumed, other chains not shown): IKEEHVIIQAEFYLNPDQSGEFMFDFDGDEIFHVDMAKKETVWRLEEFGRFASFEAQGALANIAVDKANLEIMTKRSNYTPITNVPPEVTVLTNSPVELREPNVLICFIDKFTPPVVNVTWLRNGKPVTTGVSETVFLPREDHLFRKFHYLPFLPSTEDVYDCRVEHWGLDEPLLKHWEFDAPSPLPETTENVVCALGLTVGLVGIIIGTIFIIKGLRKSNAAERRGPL
HLA-DR DRB1*1302 (DR13), sequence (P01903 26-254 limits assumed, other chains not shown): as above
HLA-DR DRB1*1101 (DR11), sequence (P01903 26-254 limits assumed, other chains not shown): as above

Substance KTYGGPGPGY has an IC50 (HLA-A*2902; [1]) of 0.228 µM and an IC50 (HLA-A*3002; [2]) of 0.0017 µM.
In the case of KVGSLQYV, the IC50 (HLA-A*0203) is reported as 0.703 µM, the IC50 (HLA-A*0206) is reported as 1.9 µM and the IC50 (HLA-A*6802) is reported as 17.5 µM.
Work on KVYGLSAFV yielded an IC50 (HLA-A*0202; [3]) of 0.0018 µM, an IC50 (HLA-A*0203; [4]) of 0.011 µM and an IC50 (HLA-A*0206; [5]) of 0.069 µM. It also gave an IC50 (HLA-A*6802; [6]) of 0.11 µM.
KYQAVTTTL was tested, and the IC50 (HLA-A*2902; A*2902 binding affinity (IC50)) was > 156 µM.
With LFVVYRDSF the IC50 (HLA-A*2902) was 0.919 µM and the IC50 (HLA-A*3002) was 0.018 µM.
In the case of LLFGWCFKLV, the IC50 (HLA-A*0202) is reported as 0.084 µM.
LSEYYDXD1Y gave an IC50 (HLA-A*3002; read-out: Binding affinity to A*3002 (expressed as an IC50)) of 0.489 µM.
Work on LTDVSIACVY yielded an IC50 (HLA-A*2902) of 0.764 µM and an IC50 (HLA-A*3002) of 0.072 µM.
MTGNPAIPV showed an IC50 (HLA-A*0203; [4]) of 0.01 µM.
MTGNPPIPV showed an IC50 (HLA-A*0202; [3]) of 0.011 µM, an IC50 (HLA-A*0203; [4]) of 0.00074 µM and an IC50 (HLA-A*0206; [5]) of 0.079 µM. The IC50 (HLA-A*6802; [6]) was 0.0078 µM.
Substance MTHNPPIPV has an IC50 (HLA-A*0203; [4]) of 0.0014 µM, an IC50 (HLA-A*0206; [5]) of 0.158 µM and an IC50 (HLA-A*6802; [6]) of 0.0014 µM.
Work on PVDPNLEPY yielded an IC50 (HLA-A*3002) of 7.12 µM.
For QAAESNERY, the IC50 (HLA-A*2902; [1]) was 24.3 µM and the IC50 (HLA-A*3002; [2]) was 3.01 µM.
QLGPGPGLMEV was tested, and the IC50 (HLA-A*0202; [3]) was 0.0094 µM, the IC50 (HLA-A*0203; [4]) was 0.029 µM and the IC50 (HLA-A*0206; [5]) was 0.481 µM. For the same substance, the IC50 (HLA-A*6802; [6]) was 0.648 µM.
SSFFMNRFY showed an IC50 (HLA-A*2902; [1]) of 0.036 µM and an IC50 (HLA-A*3002; [2]) of 0.0075 µM.
In the case of TYGWCFKL, the IC50 (HLA-A*2902) is reported as 25.7 µM and the IC50 (HLA-A*3002) is reported as > 8.04 µM.
Work on WQNYTPGPGV yielded an IC50 (HLA-A*0203; [4]) of 0.23 µM, an IC50 (HLA-A*0206; [5]) of 0.223 µM and an IC50 (HLA-A*6802; [6]) of 12 µM.
YLPGPGIRYPL was tested, and the IC50 (HLA-A*0202) was 0.02 µM, the IC50 (HLA-A*0203) was 1.58 µM and the IC50 (HLA-A*0206; [5]) was 3.5 µM.
In the case of YLVCGERGFFYTPKT, the IC50 (HLA-DR DRB1*0101 (DR1)) is reported as 11.1 µM, the IC50 (HLA-DR DRB1*0301 (DR3)) is reported as 37.2 µM and the IC50 (HLA-DR DRB1*0401 (DR4)) is reported as 1.44 µM. The IC50 (HLA-DR DRB1*0405 (DR4)) was 0.73 µM, the IC50 (HLA-DR DRB1*0701 (DR7)) was 64.6 µM and the IC50 (HLA-DR DRB1*0802 (DR8)) was > 54.4 µM. For the same substance, the IC50 (HLA-DR DRB1*0901 (DR9)) was 1.52 µM, the IC50 (HLA-DR DRB1*1101 (DR11)) was > 10.5 µM and the IC50 (HLA-DR DRB1*1302 (DR13)) was 9.27 µM. It also gave an IC50 (HLA-DR DRB1*1501 (DR15)) of 10.7 µM, an IC50 (HLA-DR DRB3*0101 (DR52)) of 92.8 µM and an IC50 (HLA-DR DRB4*0101 (DR53)) of 34.5 µM. It also gave an IC50 (HLA-DR DRB5*0101 (DR51)) of 95.2 µM.
With YLVCGERGFLYTPKT the IC50 (HLA-DR DRB1*0101 (DR1)) was 0.155 µM, the IC50 (HLA-DR DRB1*0301 (DR3)) was 2.03 µM and the IC50 (HLA-DR DRB1*0401 (DR4)) was > 20.5 µM. The IC50 (HLA-DR DRB1*0405 (DR4)) was > 30.1 µM, the IC50 (HLA-DR DRB1*0701 (DR7)) was 12.8 µM and the IC50 (HLA-DR DRB1*0802 (DR8)) was > 54.4 µM. The IC50 (HLA-DR DRB1*0901 (DR9)) was 0.124 µM, the IC50 (HLA-DR DRB1*1101 (DR11)) was > 1110 µM and the IC50 (HLA-DR DRB1*1302 (DR13)) was 2.12 µM. For the same substance, the IC50 (HLA-DR DRB1*1501 (DR15)) was > 25.6 µM, the IC50 (HLA-DR DRB3*0101 (DR52)) was > 95.2 µM and the IC50 (HLA-DR DRB4*0101 (DR53)) was 33.1 µM. For the same substance, the IC50 (HLA-DR DRB5*0101 (DR51)) was 0.971 µM.
For YYNNFNNNY, the IC50 (HLA-A*2902; [1]) was 0.019 µM and the IC50 (HLA-A*3002; [2]) was 0.034 µM.
